Data on one compound can be found in patent US9895302B2, “Finasteride polymeric nanoparticle, aqueous suspension containing the same, composition for the treatment of alopecia, process of preparation of said composition, and its use” (Biolab Sanus Farmaceutica Ltda., priority 2012, dated 2018).

Series [1] can be described thus: Solubility of finasteride in Unistab S-69 (dosing by HPLC). It is filed as physicochemical. The settings on record: Unistab S-69 (commercial mixture of farnesol and linalool), oil or lipid. Here is the method:
The second embodiment of the invention is to increase the encapsulation of finasteride by the addition of a new oil in the formulation's lipid core composition in which the solubility is greater than in caprylic and capric triglycerides. To this end, Unistab® S-69, a commercial mixture, was preferentially employed and consists of farnesol and linalool, in which the solubility of finasteride is about 90 mg/mL (dosing done by HPLC). Farnesol is a sesquiterpene alcohol and linalool is a terpenic alcohol, both found in various essential oils and insoluble in water but miscible with oils and other organic solvents such as acetone and ethanol. For being volatile, Unistab® S-69 was mixed with triglycerides in a ratio of 2.3: 1 (v/v) (Unistab® S-69: triglycerides). However, this proportion, considering the saturation of finasteride in Unistab® S-69, could be employed in the preparation of a formulation with a drug concentration of 2.0 mg/ml, due to the volatility of Unistab® S-69 and to the consequent loss of oil due to the draw caused by steam during the process of solvent evaporation under reduced pressure, a formulation was prepared with a finasteride concentration of 0.5 mg/ml, in order to ensure the nanometric features of the system. This formulation comprising a new lipid core represents the second embodiment of the invention.

The next series relates to men aged 18 to 41 years. To be noted: 1 mg daily, at the end of five years; cited from earlier work.

Converted amounts (≈) assume the structure as drawn.

On to `CC(C)(C)NC(=O)[C@H]1CC[C@H]2[C@@H]3CC[C@H]4NC(=O)C=C[C@]4(C)[C@H]3CC[C@]12C` [finasteride], for which, in series [1], the solubility was about 90 mg/mL (≈ 242 mM). In the series on men aged 18 to 41 years, the “Patients who developed baldness” value is on record as 10%.

What is called solubility is the concentration that dissolves in the medium under given conditions.
